Reference: ChEMBL document CHEMBL4699569, “Rapid discovery of a selective butyrylcholinesterase inhibitor using structure-based virtual screening” (Bioorg Med Chem Lett, 2020)

Legend:
[1] = target: T1, Cholinesterase (Equus caballus, UniProt P81908); test: Inhibition of equine serum BuChE; format: cell-free
[2] = target: Acetylcholinesterase (Electrophorus electricus, UniProt O42275); test: Inhibition of electric eel AChE at 100 uM
[3] = target: Cholinesterase (Homo sapiens, UniProt P06276); test: Inhibition of human BuChE at 10 uM
Cholinesterase (Homo sapiens, UniProt P06276), sequence (P06276 whole entry): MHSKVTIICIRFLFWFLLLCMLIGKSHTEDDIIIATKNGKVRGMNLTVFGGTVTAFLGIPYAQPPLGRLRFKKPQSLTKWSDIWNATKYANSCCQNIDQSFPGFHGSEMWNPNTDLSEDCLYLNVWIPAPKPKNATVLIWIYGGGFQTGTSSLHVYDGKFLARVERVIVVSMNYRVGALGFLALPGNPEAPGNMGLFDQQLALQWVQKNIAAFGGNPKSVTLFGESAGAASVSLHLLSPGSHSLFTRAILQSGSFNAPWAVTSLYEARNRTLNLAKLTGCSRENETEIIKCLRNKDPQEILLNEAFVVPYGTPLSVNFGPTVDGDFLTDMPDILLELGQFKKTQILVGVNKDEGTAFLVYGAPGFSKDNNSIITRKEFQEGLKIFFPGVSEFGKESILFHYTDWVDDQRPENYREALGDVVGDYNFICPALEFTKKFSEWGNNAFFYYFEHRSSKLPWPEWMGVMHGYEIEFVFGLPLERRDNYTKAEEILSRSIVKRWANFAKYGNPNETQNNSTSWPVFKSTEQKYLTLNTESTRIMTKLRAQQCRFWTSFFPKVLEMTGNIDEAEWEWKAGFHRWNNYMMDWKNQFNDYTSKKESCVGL

[4] = target: Acetylcholinesterase (Homo sapiens) (UniProt P22303); test: Inhibition of human recombinant AChE at 200 uM
Acetylcholinesterase (Homo sapiens), sequence (P22303 whole entry): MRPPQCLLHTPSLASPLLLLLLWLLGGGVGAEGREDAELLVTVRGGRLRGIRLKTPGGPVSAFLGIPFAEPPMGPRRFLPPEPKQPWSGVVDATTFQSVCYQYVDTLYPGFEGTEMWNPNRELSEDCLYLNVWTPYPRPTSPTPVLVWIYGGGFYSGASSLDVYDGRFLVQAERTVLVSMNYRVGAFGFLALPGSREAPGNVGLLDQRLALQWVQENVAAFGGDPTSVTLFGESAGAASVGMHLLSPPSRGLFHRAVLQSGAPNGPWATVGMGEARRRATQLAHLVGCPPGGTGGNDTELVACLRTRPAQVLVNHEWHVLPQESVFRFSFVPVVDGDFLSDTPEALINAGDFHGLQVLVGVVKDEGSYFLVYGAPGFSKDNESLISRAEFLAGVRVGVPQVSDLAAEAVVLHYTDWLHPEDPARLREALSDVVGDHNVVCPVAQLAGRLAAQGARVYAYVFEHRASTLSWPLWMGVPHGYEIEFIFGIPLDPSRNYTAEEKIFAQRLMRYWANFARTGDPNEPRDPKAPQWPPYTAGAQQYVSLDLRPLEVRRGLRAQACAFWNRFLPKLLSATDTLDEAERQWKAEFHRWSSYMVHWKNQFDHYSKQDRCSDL

[5] = target: T1, Cholinesterase; test: Mixed inhibition of equine serum BChE using butyrylthiocholine iodide as substrate; format: cell-free
[6] = Permeability of compound by PAMPA-BBB assay; format: ADME; settings: read-out: permeability

T1 sequence (P81908 whole entry): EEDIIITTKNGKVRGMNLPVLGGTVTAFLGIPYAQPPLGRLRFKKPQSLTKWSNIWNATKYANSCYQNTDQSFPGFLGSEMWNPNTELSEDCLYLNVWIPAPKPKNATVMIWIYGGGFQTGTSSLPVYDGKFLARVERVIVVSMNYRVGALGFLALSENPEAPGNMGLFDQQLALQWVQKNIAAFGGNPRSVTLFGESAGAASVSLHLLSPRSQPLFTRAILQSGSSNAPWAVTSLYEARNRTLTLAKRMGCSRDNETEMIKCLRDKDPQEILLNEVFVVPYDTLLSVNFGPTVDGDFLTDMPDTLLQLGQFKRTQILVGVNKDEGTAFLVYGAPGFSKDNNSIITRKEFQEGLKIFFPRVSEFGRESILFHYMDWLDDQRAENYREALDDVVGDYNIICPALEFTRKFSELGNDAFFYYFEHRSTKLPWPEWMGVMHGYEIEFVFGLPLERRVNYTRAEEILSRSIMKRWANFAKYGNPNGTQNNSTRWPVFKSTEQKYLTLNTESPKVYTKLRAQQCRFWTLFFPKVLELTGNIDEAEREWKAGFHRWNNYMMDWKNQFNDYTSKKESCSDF
Acetylcholinesterase, sequence (O42275 whole entry): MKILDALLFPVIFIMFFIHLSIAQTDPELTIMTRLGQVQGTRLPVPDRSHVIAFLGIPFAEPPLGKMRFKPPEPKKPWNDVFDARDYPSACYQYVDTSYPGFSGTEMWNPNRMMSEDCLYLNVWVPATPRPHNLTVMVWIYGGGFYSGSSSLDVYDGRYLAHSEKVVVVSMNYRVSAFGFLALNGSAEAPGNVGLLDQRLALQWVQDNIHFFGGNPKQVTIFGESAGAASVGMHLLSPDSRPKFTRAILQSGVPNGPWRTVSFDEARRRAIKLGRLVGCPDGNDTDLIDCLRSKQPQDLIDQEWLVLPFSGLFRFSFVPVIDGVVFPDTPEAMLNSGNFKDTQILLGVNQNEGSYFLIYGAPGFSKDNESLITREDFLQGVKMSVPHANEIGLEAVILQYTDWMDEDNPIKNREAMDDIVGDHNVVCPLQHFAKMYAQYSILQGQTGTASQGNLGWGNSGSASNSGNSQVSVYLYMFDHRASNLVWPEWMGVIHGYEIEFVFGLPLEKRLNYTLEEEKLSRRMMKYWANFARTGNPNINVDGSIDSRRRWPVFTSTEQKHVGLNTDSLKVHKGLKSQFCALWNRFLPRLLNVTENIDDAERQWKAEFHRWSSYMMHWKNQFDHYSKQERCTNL

| Compound | IC50 [1] [µM] | IC50 [2] | IC50 [3] [nM] | inhibition [4] [%] | Ki [5] [µM] | Papp [6] [×10⁻⁶ cm/s] |
| --- | --- | --- | --- | --- | --- | --- |
| COc1ccccc1C1CCN(Cc2c(C)[nH]c3ccccc23)CC1 | 12.3 | Not Active |  |  |  |  |
| COc1ccc(-c2cc(C(=O)N3CCN(Cc4ccccc4)CC3)c3ccccc3n2)cc1 | 3.3 | Not Active | 2400 | 8 | 5.2 | 1.28 |
